Measured values taken from paper PMC10610188, “Structure–Activity Relationship Studies of Chalcones and Diarylpentanoids with Antitumor Activity: Potency and Selectivity Optimization” (Pharmaceuticals, 2023).
Like-named read-outs stand apart in the source and are kept apart here.

Experiments:
HCT116 p53^−/− cells [1] = details: SRB assay, cited from earlier work
HCT116 p53^+/+ cells [2] = details: SRB assay, cited from earlier work
HFF-1 cells [3] = assay: SRB growth inhibition assay in normal fibroblasts HFF-1; type: cell-based, human; details: for SI2: Selective index 2: GI50 of HFF-1/GI50 of HCT116 p53^+/+; for GI50: Homo sapiens, HFF-1, SRB assay, 48 h of treatment
Procedure: (§1) To study the in vitro antitumor potential of chalcone CM-M345 (1) and diarylpentanoid BP-C4 (2) analogues, the sulforhodamine B (SRB) assay was used to evaluate the antiproliferative activity in human colorectal HCT116 cancer cells. To assess their cytotoxicity toward normal cells, the antiproliferative effect of these compounds was also tested in human fibroblasts HFF-1 cells. In order to confirm if inhibition of proliferation was associated with p53 activation in HCT116 p53^+/+ cells, all compounds were also tested in HCT116 cells in which p53 was knocked out (HCT116 p53^−/−) and the selective index was calculated and compared to the compounds CM-M345 (1) and BP-C4 (2), for which p53-dependent antiproliferative activity was previously reported by our research group (Table 1).
(§2) The colorectal adenocarcinoma HCT116 cells (HCT116 p53^+/+) and its p53-null isogenic derivative (HCT116 p53^−/−) were given by Prof. Vogelstein (The Johns Hopkins Kimmel Cancer Center, Baltimore, USA); the normal human fibroblasts HFF-1 cell lines were from ATCC (Rockville, MD, USA). Human cells were cultured in RPMI-1640 with UltraGlutamine (Lonza, VWR, Portugal) with 10% FBS (Gibco, Alfagene, Portugal) at 37 °C with 5% CO2. The SH-SY5Y cells were cultured in DMEM/F-12 (Lonza) and 10% FBS and 2mM L-glutamine (Gibco). The cells were incubated at 37 °C in a humidified atmosphere of 5% CO2. Mycoplasma was routinely checked using the MycoAlert™ PLUS kit (Lonza). […]

HCT116 p53^+/+ cells [4] = assay: SRB growth inhibition assay in HCT116 p53+/+ cells; type: cell-based, human; details: for GI50: SRB assay, 48 h of treatment
Procedure: as §1, §2

HCT116 p53^−/− cells [5] = assay: SRB growth inhibition assay in HCT116 p53-/- cells; type: cell-based, human; details: for SI1: Selective index 1: GI50 of HCT116 p53^−/−/GI50 of HCT116 p53^+/+; for GI50: Homo sapiens, HCT-116, SRB assay, 48 h of treatment
Procedure: as §1, §2

p53–MDM2 interaction = target: T1, p53–MDM2 interaction (Homo sapiens, UniProt Q00987); assay: Yeast-based p53-MDM2 interaction screening assay; type: cell-based; details: 10 μM
T1 construct: expressed in transfected cells; host or cells: Saccharomyces cerevisiae strain CG379
T1 sequence (Q00987 whole entry): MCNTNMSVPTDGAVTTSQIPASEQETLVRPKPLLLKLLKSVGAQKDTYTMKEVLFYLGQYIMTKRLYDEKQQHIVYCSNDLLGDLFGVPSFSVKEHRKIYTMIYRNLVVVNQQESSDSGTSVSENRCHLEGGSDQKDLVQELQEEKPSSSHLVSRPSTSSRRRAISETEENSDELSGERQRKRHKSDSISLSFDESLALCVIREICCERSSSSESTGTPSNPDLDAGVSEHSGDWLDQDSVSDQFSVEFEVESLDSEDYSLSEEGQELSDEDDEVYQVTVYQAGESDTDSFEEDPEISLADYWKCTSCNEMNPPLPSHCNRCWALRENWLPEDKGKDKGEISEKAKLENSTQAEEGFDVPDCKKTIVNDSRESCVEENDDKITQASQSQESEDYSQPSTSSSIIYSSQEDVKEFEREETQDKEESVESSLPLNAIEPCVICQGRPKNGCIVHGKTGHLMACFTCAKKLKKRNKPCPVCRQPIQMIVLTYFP
Source text: The possible activation of p53 by inhibiting its interaction with MDM2 was investigated using the yeast-based screening assay previously developed by our group. In this assay, compounds that inhibit p53–MDM2 interaction will re-establish the p53-induced growth-inhibitory effect, which was abolished by MDM2 [43].
In the yeast targeted screening assay, Saccharomyces cerevisiae (strain CG379) expressing human wt p53 alone and combined with human MDM2 were used as described. For the expression of human proteins (routinely grown in minimal selective medium), the cells were diluted to 0.05 OD600 in the selective induction medium with 2% (w/w) galactose, 1% (w/w) raffinose, 0.7% (w/w) yeast nitrogen base without amino acids from Difco (Quilaban, Sintra, Portugal), and all the amino acids necessary for yeast growth ([…]) except leucine and tryptophan. The yeast cells were incubated at 30 °C under continuous orbital shaking (200 rpm) with […] compounds or 0.1% DMSO only for over 42 h. Yeast growth was analyzed by counting the number of colony-forming units (CFUs) after 2 days of incubation at 30 °C on Sabouraud Dextrose Agar from Liofilchem (Frilabo, Porto, Portugal).

PARP = assay: Western blot, PARP cleavage; type: cell-based, human; details: 5 µM, 48 h, HCT116 p53^+/+
Procedure: (§3) For Western blotting, 1.5 × 10^5 cells (per well) of HCT116 p53^+/+ cells were seeded in six-well plates and allowed to adhere for 24 h, followed by treatment with 5 μM 17 for 48 h. Protein extracts obtained from the human cancer cells were quantified using the Pierce™ BCA Protein Assay Kit (Thermo Scientific, Taper, Sintra, Portugal), according to the manufacturer’s instructions. The proteins were then run in SDS-PAGE and transferred to a Whatman nitrocellulose membrane from Protan (VWR, Carnaxide, Portugal). Proteins were detected using the primary antibodies anti-p53 (Santa Cruz Biotechnology, Dallas, TX, USA, SC-126, 1:5000), anti-BCL-2 (Santa Cruz Biotechnology, SC-7382, 1:200), anti-PARP (Cell Signaling, #9542, 1:1000), and anti-GAPDH (Santa Cruz Biotechnology, SC-32233, 1:10,000), followed by HRP-conjugated secondary antibodies anti-mouse (Santa Cruz Biotechnology, SC-2005, 1:2500) and anti-rabbit (Santa Cruz Biotechnology, SC-2006, 1:2500). GAPDH was used as a loading control. The signal was detected with an ECL Amersham kit from GE Healthcare (VWR) and the ChemiDoc™ MP Imaging System (Bio-Rad, Amadora, Portugal).

p53 = assay: Western blot, p53 protein levels; type: cell-based, human; details: 5 µM, 48 h, HCT116 p53^+/+
Procedure: as §3

HCT116 p53^+/+ cells [6] = assay: Annexin V-FITC apoptosis analysis by flow cytometry; type: cell-based, human; details: 5 µM, 48 h
Procedure: The 1.5 × 10^5 HCT116 p53^+/+ cells/well were seeded in 6-well plates and then treated with 5 µM 17 for 48 h. For the apoptosis analysis, an Annexin V-FITC Apoptosis Detection Kit I (BD Biosciences, Franklin Lakes, NJ, USA) was used following the manufacturer’s instructions. An AccuriTM C6 flow cytometer and the BD Accuri C6 software were used for data acquisition.

Bcl-2 = assay: Western blot, Bcl-2 protein levels; type: cell-based, human; details: 5 µM, 48 h, HCT116 p53^+/+
Procedure: as §3

HFF-1 cells [7] = system: HFF-1 cells; set-up: method as in Moreira et al. [21]; details: SRB assay; ref Moreira et al. [21]; cited from earlier work
human cancer cells = system: human cancer cells; set-up: method as in PMID 34170069, doi:10.1016/j.arabjc.2016.04.015; details: read-out: GI50 against human cancer cells; cited from earlier work

CCCc1c(OC)ccc(C(=O)/C=C/c2cc(OC)c(OC)c(OC)c2)c1O [CM-M345 (1), (E)-1-(2-hydroxy-4-methoxy-3-propylphenyl)-3-(3,4,5-trimethoxyphenyl)prop-2-en-1-one]
GI50 (HCT116 p53^−/− cells [1]; ref Pereira et al. [23]): 3.4 ± 0.1 µM
GI50 (HCT116 p53^+/+ cells [2]; ref Pereira et al. [23]): 2.6 ± 0.2 µM
SI2: Selective index 2 (HFF-1 cells [3]): 2.96
GI50 (HFF-1 cells [3]): 7.7 ± 0.8 µM

O=C1/C(=C/c2ccc(Cl)cc2)CSc2ccccc21 [Compound 16]
antiproliferative activity compared to BP-C4 (2) (HCT116 p53^+/+ cells [4]; HCT116 p53^+/+): nine-fold higher
GI50 (HCT116 p53^+/+ cells [4]; Homo sapiens, HCT-116, 48 h): 0.69 ± 0.07 µM
melting point: 139 to 141 °C
SI1: Selective index 1 (HCT116 p53^−/− cells [5]): 11.5
selectivity for p53 compared to BP-C4 (2) (HCT116 p53^−/− cells [5]; HCT116 p53^+/+ over p53^−/−): seven-fold increased
GI50 (HCT116 p53^−/− cells [5]): 7.95 ± 0.85 µM
SI2: Selective index 2 (HFF-1 cells [3]): 5.25
GI50 (HFF-1 cells [3]): 3.62 ± 0.99 µM
effect on growth of control yeast (vectors) or yeast expressing p53 only (p53–MDM2 interaction): without interfering with the growth
inhibition of the p53–MDM2 interaction in yeast co-expressing p53 and MDM2 (p53–MDM2 interaction): behaved as a potential inhibitor of the p53-MDM2 interaction

CCCc1c(OC)ccc(C(=O)/C=C/c2ccc(Br)cc2)c1O [Compound 34, (E)-3-(4-bromophenyl)-1-(2-hydroxy-4-methoxy-3-propylphenyl)prop-2-en-1-one]
GI50 (HCT116 p53^+/+ cells [4]; Homo sapiens, HCT-116, 48 h): 18.5 ± 0.35 µM
melting point: 115 to 116 °C
SI1: Selective index 1 (HCT116 p53^−/− cells [5]): 0.62
GI50 (HCT116 p53^−/− cells [5]): 11.5 ± 0.145 µM
SI2: Selective index 2 (HFF-1 cells [3]): 0.80
GI50 (HFF-1 cells [3]): 14.9 ± 0.232 µM

COc1cc(/C=C2\COC/C(=C\c3cc(OC)c(OC)c(OC)c3)C2=O)cc(OC)c1OC [BP-M345 (1), reference compound]
GI50 (HCT116 p53^+/+ cells [2]; ref Moreira et al. [21]): 0.17 µM

O=C(/C=C/c1ccc(Cl)cc1)/C=C/c1ccc(Cl)cc1 [Compound 17]
PARP cleavage (Western blot) (PARP): PARP cleavage
GI50 (HCT116 p53^+/+ cells [4]; Homo sapiens, HCT-116, 48 h): 2.8 µM
GI50 (HCT116 p53^+/+ cells [4]): 2.18 ± 0.59 µM
p53 protein levels (Western blot) (p53): did not interfere with the p53 protein levels
SI1: Selective index 1 (HCT116 p53^−/− cells [5]): 1.63
GI50 (HCT116 p53^−/− cells [5]): 3.55 ± 0.05 µM
apoptosis (annexin-positive cells) (HCT116 p53^+/+ cells [6]): induced apoptosis
Bcl-2 protein levels (Western blot) (Bcl-2): depletion of the protein levels of the anti-apoptotic protein Bcl-2
GI50 value in HFF-1 cells relative to HCT116 p53^+/+ cells (fold higher) (HFF-1 cells [3]): 12 fold
SI2: Selective index 2 (HFF-1 cells [3]): 12.43
GI50 (HFF-1 cells [3]): 27.1 ± 1.25 µM

COc1cc(/C=C2\Cc3ccccc3C2=O)cc(OC)c1OC [Compound 3]
GI50 (HCT116 p53^+/+ cells [4]; Homo sapiens, HCT-116, 48 h): 4.6 ± 0.3 µM
melting point: 160 to 163 °C
SI1: Selective index 1 (HCT116 p53^−/− cells [5]): 0.70
GI50 (HCT116 p53^−/− cells [5]): 3.2 ± 0.47 µM
SI2: Selective index 2 (HFF-1 cells [3]): 1.76
GI50 (HFF-1 cells [3]): 8.1 ± 0.1 µM

O=C1/C(=C/c2ccc(Cl)cc2)COC/C1=C\c1ccc(Cl)cc1 [BP-C4 (2), 3,5-bis((E)-4-chlorobenzylidene)tetrahydro-4H-pyran-4-one]
GI50 (HFF-1 cells [7]): 36.2 ± 5.54 µM
GI50 (HCT116 p53^−/− cells [1]; ref Moreira et al. [21]): 10.1 ± 0.47 µM
SI1: Selective index 1 (HCT116 p53^−/− cells [5]): 1.62
GI50 (HCT116 p53^+/+ cells [2]; ref Moreira et al. [21]): 6.25 ± 1.18 µM
SI2: Selective index 2 (HFF-1 cells [3]): 5.79
GI50 (human cancer cells): 6.25 µM

CCCc1c(OC)ccc(C(=O)/C=C/c2ccc(Cl)cc2)c1O [Compound 32]
GI50 (HCT116 p53^+/+ cells [4]; Homo sapiens, HCT-116, 48 h): 9.5 ± 0.5 µM
melting point: 109 to 112 °C
SI1: Selective index 1 (HCT116 p53^−/− cells [5]): 1
GI50 (HCT116 p53^−/− cells [5]): 9.5 ± 0.1 µM
SI2: Selective index 2 (HFF-1 cells [3]): 1.17
GI50 (HFF-1 cells [3]): 11.1 ± 0.12 µM

CCCc1c(OC)ccc(C(=O)/C=C/c2ccc(N3CCOCC3)cc2)c1O [Compound 36, (E)-1-(2-hydroxy-4-methoxy-3-propylphenyl)-3-(4-morpholinophenyl)prop-2-en-1-one]
GI50 (HCT116 p53^+/+ cells [4]; Homo sapiens, HCT-116, 48 h): 5.1 to 10.7 µM
GI50 (HCT116 p53^+/+ cells [4]): 5.1 ± 0.32 µM
melting point: 129 to 131 °C
GI50 (HCT116 p53^−/− cells [5]): 14.3 ± 1.1 µM
SI2: Selective index 2 (HFF-1 cells [3]): 3.08
GI50 (HFF-1 cells [3]): 15.7 ± 2.8 µM
inhibition of the p53–MDM2 interaction in yeast co-expressing p53 and MDM2 (p53–MDM2 interaction): seems not to be related to the inhibition of p53–MDM2 interaction
